{"source": "patent EP0939136A1", "about": "“Assay for predicting the angiographic response to lipid-lowering therapy in patients” (Academisch Ziekenhuis bij de Universiteit van Amsterdam, priority 1998, dated 1999)", "assay_type_in_all_cases": "in vivo, male patients", "key": {"CETP": {"tested_on": "CETP", "assay": "Plasma CETP concentration by solid phase radioimmunoassay", "settings": "68 pravastatin-treated subjects, P<0.001", "method": "(§1) 807 Male patients participating in the Regression Growth Evaluation Statin Study (REGRESS), which has previously been described in detail (Kuivenhoven et al., Arterioscler. Thromb. Vasc. Biol. 17:560-568 (1997)) were prospectively studied. In short, study participants were required to have at least one coronary artery with a stenosis off >50 percent as assessed by coronary angiography, a plasma total cholesterol concentration of 155-310 mg per deciliter (4 to 8 millimole per liter) and triglycerides of 350 mg per deciliter(< 4 millimole per liter). Patients were subsequently randomized to treatment with pravastatin sodium (Pravachol®; 40 mg/day ) or to placebo for a period of two years. The placebo group contained 396 patients and the group treated with pravastatin contained 411 patients.\nPlasma lipids and lipoproteins were measured using standard techniques (Groenemeyer et al., Circulation 95:2628-2653 (1997)). Due to a lack of sufficient aliquots of plasma, CETP concentrations were determined in 237 patients at baseline, and in only 68 pravastatin-treated subjects at the end of the trial. […]"}, "[1]": {"assay": "REGRESS trial: computer-assisted quantitative coronary angiography (MSD, MOD)", "settings": "for MOD decrease: median (IQR) / MSD decrease: mean (SD): 40 mg/day, two years, larger figure = more progression of atherosclerosis", "method": "as §1\nComputer-assisted quantitative coronary angiography was carried out at the start and at the end of the study. The two following primary measures of outcome were used: (a) the change in the average Mean Segment Diameter (MSD) per patient (also known as Mean Lumen Diameter) reflecting diffuse changes of atherosclerosis, and (b) the change in the average Minimum Obstruction Diameter […]) which reflects the focal change of atherosclerosis. Given these definitions, one should note that a greater decrease in MSD and/or MOD reflects more progression of coronary atherosclerosis.\n(§2) The differences between carriers of the three TaqIB genotypes (i.e. B1B1, B1B2, and B2B2) were tested using one-way ANOVA or Pearson's Chi-square test. Changes in lipids, lipoproteins and angiographic parameters during the trial period were quantified with means and standard deviations, and the differences within the two medication groups were tested using one-way covariance analysis with baseline levels as covariates.\nThe interaction between the three CETP TaqIB genotypes and medication (placebo/pravastatin) was tested using the interaction test of two-way covariance analysis. It was checked whether the above interaction between genotype and medication was dependent of baseline HDL cholesterol concentration, changes in HDL during the trial, baseline MSD, baseline MOD, and each of hepatic lipase or lipoprotein lipase activity by using these as covariates in two-way covariance analysis. The latter analysis was also carried out to test if the significant differences in decrease in either MSD or MOD as identified amongst the TaqIB subgroups in the placebo group, were dependent on the above parameters."}, "[2]": {"assay": "REGRESS trial: events (death and myocardial infarction)", "settings": "40 mg/day, two years", "method": "as §1\nDifferences in rate of events between genotypes were analyzed with Pearson Chi-square tests within the medication groups, and the interaction between genotype and medication with logistic regression. Within each of the patient groups, the Hardy-Weinberg equilibrium was tested by means of gene counting and χ^2 analysis. Throughout, a P value of 0.05 was interpreted as representing a statistically significant difference. All statistical analyses were carried out with the Statistical Analysis System (SAS, version 6.1, SAS Institute, Cari, NC) and adapted from the EGRET Manual, (Statistical and Epidemiological Research Corporation, 1991, Seattle, Washington, USA).\nAbbreviations: MSD = mean segment Diameter; MOD = minimum obstruction diameter (Note: A larger figure for either a decrease in mean segment diameter (MSD) or minimum obstruction diameter (MOD) indicates more progression of atherosclerosis). SD = standard deviation; IQR = interquartile range; * P value of covariance analysis of the change measures with baseline values as covariate, or chi-square test (where appropriate), comparing the three CETP-TaqIB genotypes; ^† P value of the interaction test of the interaction between treatment (placebo/pravastatin) and the CETP TaqIB genotype (B1B1-B1B2-B2B2) of covariance analysis with baseline values as covariate or of logistic regression, where appropriate. P values while comparing TaqIB subgroup of the placebo group with the pravastatin group: ^‡ P<0.001; ^§ P<0.38; ^¶ P<0.30; ^¥ P<0.002; ** P<0.01; ^†† P<0.48. ? Events are defined as death and myocardial infarction. For conversion from mg.dL^-1 to mmol.L^-1 for total cholesterol, LDL cholesterol and HDL cholesterol levels, multiply by factor 0.02586. For conversion of triglyceride levels from mg.dL^-1 to mmol.L^-1, use 0.01129. [formula] [formula] [formula]"}, "[3]": {"assay": "REGRESS trial: in-trial changes in plasma lipids and lipoproteins", "settings": "40 mg/day, two years", "method": "as §1\nPlasma lipids and lipoproteins were measured using standard techniques (Groenemeyer et al., Circulation 95:2628-2653 (1997)). Due to a lack of sufficient aliquots of plasma, CETP concentrations were determined in 237 patients at baseline, and in only 68 pravastatin-treated subjects at the end of the trial. These measurements were performed by solid phase radioimmunoassay using recombinant human protein (provided by Dr. A.Tall; Columbia University, New York) as standard and a CETP monoclonal antibody, TP2 (produced by Dr. R. Milne; University of Ottawa Heart Institute; Ottawa, McPherson et al., Arterioscler. Thromb 11:797-804 (1991). In addition, the lipase and lipoprotein lipase activities were measured as reported (Groenemeyer et al., supra).\nas §2"}, "[4]": {"settings": "CETP TaqIB genotype B1B1 (n=136)"}, "[5]": {"settings": "CETP TaqIB genotype B1B2 (n=212)"}, "[6]": {"settings": "CETP TaqIB genotype B2B2 (n=63)"}}}
{"smiles": "CC[C@H](C)C(=O)O[C@H]1C[C@H](O)C=C2C=C[C@H](C)[C@H](CC[C@@H](O)C[C@@H](O)CC(=O)O)[C@H]21", "note": "[Pravastatin, pravastatin sodium]", "values": [{"measurement": "plasma CETP concentration", "setting": "CETP; end of the trial (baseline 2.03±0.53)", "result": "1.71±0.46", "unit": "µg per milliliter"}, {"measurement": "reduction in plasma CETP concentrations", "setting": "CETP; end of the trial compared with baseline", "result": 16, "unit": "%"}, {"measurement": "progression of coronary atherosclerosis compared with counterparts in the placebo group", "setting": "[1]; B2B2 homozygotes, end of the study", "result": "statistically non-significant larger progression"}, {"measurement": "MOD decrease: median (IQR)", "setting": "[1]; [4]", "result": "0.01 (.19) mm"}, {"measurement": "MSD decrease: mean (SD)", "setting": "[1]; [4]", "result": "0.05 (.16) mm"}, {"measurement": "MOD decrease: median (IQR)", "setting": "[1]; [5]", "result": "0.04 (.21) mm"}, {"measurement": "MSD decrease: mean (SD)", "setting": "[1]; [5]", "result": "0.07 (.20) mm"}, {"measurement": "MOD decrease: median (IQR)", "setting": "[1]; [6]", "result": "0.04 (.22) mm"}, {"measurement": "MSD decrease: mean (SD)", "setting": "[1]; [6]", "result": "0.09 (.16) mm"}, {"measurement": "progression of coronary atherosclerosis compared with counterparts in the placebo group", "setting": "[1]; carriers of one B1 allele (B1B2), MOD, P<0.01", "result": "significantly less focal atherosclerosis"}, {"measurement": "progression of coronary atherosclerosis compared with counterparts in the placebo group", "setting": "[1]; carriers of two B1 alleles (B1B1), smaller decreases of MSD and MOD (P<0.001, P<0.002)", "result": "significantly less progression of coronary atherosclerosis"}, {"measurement": "Events (yes/no): (%)", "setting": "[2]; [4]", "result": 2.9, "unit": "%"}, {"measurement": "Events (yes/no): n", "setting": "[2]; [4]", "result": 4}, {"measurement": "Events (yes/no): (%)", "setting": "[2]; [5]", "result": 1.9, "unit": "%"}, {"measurement": "Events (yes/no): n", "setting": "[2]; [5]", "result": 4}, {"measurement": "Events (yes/no): (%)", "setting": "[2]; [6]", "result": 0.0, "unit": "%"}, {"measurement": "Events (yes/no): n", "setting": "[2]; [6]", "result": 0}, {"measurement": "HDL cholesterol incr.: mean (SD)", "setting": "[3]; [4]", "result": "4.3 (6.2) mg.dL^-1"}, {"measurement": "LDL cholesterol red.: mean (SD)", "setting": "[3]; [4]", "result": "56.8 (26.7) mg.dL^-1"}, {"measurement": "Total cholesterol red.: mean (SD)", "setting": "[3]; [4]", "result": "53.8 (32.1) mg.dL^-1"}, {"measurement": "Triglyceride red.: ln(g.mean) (CV)", "setting": "[3]; [4]", "result": "7.1 (32.8) mg.dL^-1"}, {"measurement": "HDL cholesterol incr.: mean (SD)", "setting": "[3]; [5]", "result": "3.9 (7.0) mg.dL^-1"}, {"measurement": "LDL cholesterol red.: mean (SD)", "setting": "[3]; [5]", "result": "49.5 (29) mg.dL^-1"}, {"measurement": "Total cholesterol red.: mean (SD)", "setting": "[3]; [5]", "result": "48.3 (32.5) mg.dL^-1"}, {"measurement": "Triglyceride red.: ln(g.mean) (CV)", "setting": "[3]; [5]", "result": "7.1 (37.2) mg.dL^-1"}, {"measurement": "HDL cholesterol incr.: mean (SD)", "setting": "[3]; [6]", "result": "3.5 (6.6) mg.dL^-1"}, {"measurement": "LDL cholesterol red.: mean (SD)", "setting": "[3]; [6]", "result": "56.5 (33.6) mg.dL^-1"}, {"measurement": "Total cholesterol red.: mean (SD)", "setting": "[3]; [6]", "result": "54.1 (35.2) mg.dL^-1"}, {"measurement": "Triglyceride red.: ln(g.mean) (CV)", "setting": "[3]; [6]", "result": "5.3 (38.1) mg.dL^-1"}]}
